Assay results taken from ChEMBL document CHEMBL1201862, “PubChem BioAssay data set” (2004).
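48-hour exposure; five concentrations; linearly interpolated endpoints. At the GI50, growth is halved.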 The source made the active and inactive calls. No stated cut-off is given here; in the data, active = GI50 up to about 1.1 µM and inactive = higher.

Assays:
Test in all cases: DTP human tumour cell line panel, 48 h
786-0 = system: 786-0
A498 = system: A498
A549 = system: A549
ACHN = system: ACHN
BT-549 = system: BT-549
CAKI-1 = system: CAKI-1
CCRF-CEM = system: CCRF-CEM
COLO 205 = system: COLO 205
DU-145 = system: DU-145
EKVX = system: EKVX
HCT-116 = system: HCT-116
HCT-15 = system: HCT-15
HL-60 = system: HL-60
HOP-62 = system: HOP-62
HOP-92 = system: HOP-92
HT-29 = system: HT-29
Hs-578T = system: Hs-578T
IGROV-1 = system: IGROV-1
K562 = system: K562
KM12 = system: KM12
LOX IMVI = system: LOX IMVI
M14 = system: M14
MCF7 = system: MCF7
MDA-MB-231 = system: MDA-MB-231
MDA-MB-435 = system: MDA-MB-435
MDA-N = system: MDA-N
MOLT-4 = system: MOLT-4
Malme-3M = system: Malme-3M
NCI-H226 = system: NCI-H226
NCI-H23 = system: NCI-H23
NCI-H460 = system: NCI-H460
NCI-H522 = system: NCI-H522
NCI/ADR-RES = system: NCI/ADR-RES
OVCAR-3 = system: OVCAR-3
OVCAR-4 = system: OVCAR-4
OVCAR-5 = system: OVCAR-5
OVCAR-8 = system: OVCAR-8
PC-3 = system: PC-3
RPMI-8226 = system: RPMI-8226
RXF 393 = system: RXF 393
SF-268 = system: SF-268
SF-295 = system: SF-295
SF-539 = system: SF-539
SK-MEL-28 = system: SK-MEL-28
SK-MEL-2 = system: SK-MEL-2
SK-MEL-5 = system: SK-MEL-5
SK-OV-3 = system: SK-OV-3
SN12C = system: SN12C
SNB-19 = system: SNB-19
SNB-75 = system: SNB-75
SR = system: SR
SW-620 = system: SW-620
T47D = system: T47D
TK-10 = system: TK-10
U-251 = system: U-251
UACC-257 = system: UACC-257
UACC-62 = system: UACC-62
UO-31 = system: UO-31
HCC 2998 = system: HCC 2998

CN1CCN(CC(=O)N2c3ccccc3Sc3cc4ccccc4cc32)CC1
GI50 (786-0): 13.3 µM (inactive) | GI50 (A498): 13.7 µM (inactive) | GI50 (A549): 15.3 µM (inactive) | GI50 (ACHN): 16.4 µM (inactive) | GI50 (BT-549): 15.1 µM (inactive) | GI50 (CAKI-1): 13.1 µM (inactive) | GI50 (CCRF-CEM): 26 µM (inactive) | GI50 (COLO 205): 13.9 µM (inactive) | GI50 (DU-145): 15.9 µM (inactive) | GI50 (EKVX): 11.8 µM (inactive) | GI50 (HCT-116): 10.1 µM (inactive) | GI50 (HCT-15): 16.7 µM | GI50 (HL-60): 0.394 µM (active) | GI50 (HOP-62): 18.7 µM (inactive) | GI50 (HOP-92): 10.6 µM (inactive) | GI50 (HT-29): 4.31 µM (inactive) | GI50 (Hs-578T): 11 µM (inactive) | GI50 (IGROV-1): 16.5 µM (inactive) | GI50 (K562): 15.9 µM (inactive) | GI50 (KM12): 17 µM (inactive) | GI50 (LOX IMVI): 15.5 µM (inactive) | GI50 (M14): 13.8 µM (inactive) | GI50 (MCF7): 15.8 µM (inactive) | GI50 (MDA-MB-231): 14.6 µM (inactive) | GI50 (MDA-MB-435): 11.4 µM (inactive) | GI50 (MDA-N): 10 µM (inactive) | GI50 (MOLT-4): 12.2 µM (inactive) | GI50 (Malme-3M): 13.6 µM (inactive) | GI50 (NCI-H226): 22.7 µM (inactive) | GI50 (NCI-H23): 19.7 µM (inactive) | GI50 (NCI-H460): 16 µM (inactive) | GI50 (NCI-H522): 15 µM (inactive) | GI50 (NCI/ADR-RES): 16.1 µM (inactive) | GI50 (OVCAR-3): 12.9 µM (inactive) | GI50 (OVCAR-4): 15.5 µM (inactive) | GI50 (OVCAR-5): 14.8 µM (inactive) | GI50 (OVCAR-8): 17.5 µM (inactive) | GI50 (PC-3): 14.3 µM (inactive) | GI50 (RPMI-8226): 14.6 µM (inactive) | GI50 (RXF 393): 12.9 µM (inactive) | GI50 (SF-268): 11.6 µM (inactive) | GI50 (SF-295): 14.7 µM (inactive) | GI50 (SF-539): 15.6 µM (inactive) | GI50 (SK-MEL-28): 14.6 µM (inactive) | GI50 (SK-MEL-2): 17.5 µM (inactive) | GI50 (SK-MEL-5): 17.5 µM (inactive) | GI50 (SK-OV-3): 16.1 µM (inactive) | GI50 (SN12C): 12.1 µM (inactive) | GI50 (SNB-19): 18.4 µM (inactive) | GI50 (SNB-75): 14.5 µM (inactive) | GI50 (SR): 13.9 µM (inactive) | GI50 (SW-620): 20.4 µM (inactive) | GI50 (T47D): 19.7 µM (inactive) | GI50 (TK-10): 15.7 µM (inactive) | GI50 (U-251): 14.3 µM (inactive) | GI50 (UACC-257): 11.6 µM (inactive) | GI50 (UACC-62): 17.1 µM (inactive) | GI50 (UO-31): 13.2 µM (inactive)

CC(C)(C)c1cc(C(C)(C)C)c2sc(=S)oc2c1O
GI50 (786-0): 7.45 µM (inactive) | GI50 (A498): 12.9 µM (inactive) | GI50 (A549): 6.55 µM (inactive) | GI50 (ACHN): 8.53 µM (inactive) | GI50 (BT-549): 8.51 µM (inactive) | GI50 (CAKI-1): 5.64 µM (inactive) | GI50 (CCRF-CEM): 3.76 µM (inactive) | GI50 (COLO 205): 14.5 µM (inactive) | GI50 (DU-145): 11.7 µM (inactive) | GI50 (EKVX): 3.85 µM (inactive) | GI50 (HCT-116): 6.25 µM (inactive) | GI50 (HCT-15): 4.98 µM | GI50 (HL-60): 7.45 µM (inactive) | GI50 (HOP-62): 14.9 µM (inactive) | GI50 (HOP-92): 14.1 µM (inactive) | GI50 (HT-29): 14.9 µM (inactive) | GI50 (Hs-578T): 4.43 µM (inactive) | GI50 (IGROV-1): 9.98 µM (inactive) | GI50 (K562): 15 µM (inactive) | GI50 (KM12): 4.79 µM (inactive) | GI50 (LOX IMVI): 5.05 µM (inactive) | GI50 (M14): 10.4 µM (inactive) | GI50 (MCF7): 6.79 µM (inactive) | GI50 (MDA-MB-231): 13.6 µM (inactive) | GI50 (MDA-MB-435): 8.17 µM (inactive) | GI50 (MDA-N): 6.01 µM (inactive) | GI50 (MOLT-4): 5.2 µM (inactive) | GI50 (Malme-3M): 15.8 µM (inactive) | GI50 (NCI-H226): 15.2 µM (inactive) | GI50 (NCI-H23): 5.37 µM (inactive) | GI50 (NCI-H460): 6.1 µM (inactive) | GI50 (NCI-H522): 5.9 µM (inactive) | GI50 (NCI/ADR-RES): 9.89 µM (inactive) | GI50 (OVCAR-3): 5.14 µM (inactive) | GI50 (OVCAR-4): 11.7 µM (inactive) | GI50 (OVCAR-5): 7.46 µM (inactive) | GI50 (OVCAR-8): 6.34 µM (inactive) | GI50 (PC-3): 4.29 µM (inactive) | GI50 (RPMI-8226): 7.33 µM (inactive) | GI50 (RXF 393): 4.69 µM (inactive) | GI50 (SF-268): 3.4 µM (inactive) | GI50 (SF-295): 10.5 µM (inactive) | GI50 (SF-539): 2.39 µM (inactive) | GI50 (SK-MEL-28): 8.09 µM (inactive) | GI50 (SK-MEL-2): 8.79 µM (inactive) | GI50 (SK-MEL-5): 8.17 µM (inactive) | GI50 (SK-OV-3): 17.9 µM (inactive) | GI50 (SN12C): 6.14 µM (inactive) | GI50 (SNB-19): 12.7 µM (inactive) | GI50 (SNB-75): 6.49 µM (inactive) | GI50 (SR): 3.18 µM (inactive) | GI50 (SW-620): 9.1 µM (inactive) | GI50 (T47D): 5.19 µM (inactive) | GI50 (TK-10): 1.18 µM (inactive) | GI50 (U-251): 6.3 µM (inactive) | GI50 (UACC-257): 14.3 µM (inactive) | GI50 (UACC-62): 10.4 µM (inactive) | GI50 (UO-31): 4.12 µM (inactive)

C/C=C(\C)[C@@H](O)C(=O)O[C@@H]1CC(C(C)(C)O)[C@](C)(CCC(=O)OC)[C@H]2[C@H](OC(=O)[C@H](O)[C@H](C)CC)C[C@]3(C)C(=CC[C@H]3[C@H]3CO[C@H](C=C(C)C)C3)[C@]12C (stereo partly drawn)
GI50 (786-0): 16 µM (inactive) | GI50 (A498): 22.4 µM (inactive) | GI50 (A549): 20.9 µM (inactive) | GI50 (ACHN): 18.1 µM (inactive) | GI50 (BT-549): 18 µM (inactive) | GI50 (CAKI-1): 27.7 µM (inactive) | GI50 (DU-145): 29 µM (inactive) | GI50 (EKVX): 15.3 µM (inactive) | GI50 (HCC 2998): 16.2 µM (inactive) | GI50 (HCT-116): 18 µM (inactive) | GI50 (HCT-15): 19 µM | GI50 (HL-60): 16.7 µM (inactive) | GI50 (HOP-62): 35.3 µM (inactive) | GI50 (HOP-92): 23.3 µM (inactive) | GI50 (HT-29): 19 µM (inactive) | GI50 (Hs-578T): 19.8 µM (inactive) | GI50 (IGROV-1): 30.8 µM (inactive) | GI50 (K562): 17.8 µM (inactive) | GI50 (KM12): 24.8 µM (inactive) | GI50 (LOX IMVI): 17.6 µM (inactive) | GI50 (M14): 18.2 µM (inactive) | GI50 (MCF7): 19.3 µM (inactive) | GI50 (MDA-MB-231): 19.6 µM (inactive) | GI50 (MDA-MB-435): 22.1 µM (inactive) | GI50 (MDA-N): 20 µM (inactive) | GI50 (MOLT-4): 19.7 µM (inactive) | GI50 (NCI-H226): 19.1 µM (inactive) | GI50 (NCI-H23): 18.4 µM (inactive) | GI50 (NCI-H460): 18.5 µM (inactive) | GI50 (NCI-H522): 14.9 µM (inactive) | GI50 (NCI/ADR-RES): 16.4 µM (inactive) | GI50 (OVCAR-3): 20.1 µM (inactive) | GI50 (OVCAR-4): 19.8 µM (inactive) | GI50 (OVCAR-5): 20.5 µM (inactive) | GI50 (OVCAR-8): 17.7 µM (inactive) | GI50 (PC-3): 16.7 µM (inactive) | GI50 (RPMI-8226): 15.3 µM (inactive) | GI50 (RXF 393): 16.4 µM (inactive) | GI50 (SF-268): 18.5 µM (inactive) | GI50 (SF-295): 35.4 µM (inactive) | GI50 (SF-539): 20.5 µM (inactive) | GI50 (SK-MEL-28): 21.6 µM (inactive) | GI50 (SK-MEL-2): 17.6 µM (inactive) | GI50 (SK-MEL-5): 17.4 µM (inactive) | GI50 (SNB-75): 15.4 µM (inactive) | GI50 (SR): 14.5 µM (inactive) | GI50 (SW-620): 22.7 µM (inactive) | GI50 (T47D): 25.7 µM (inactive) | GI50 (TK-10): 24.2 µM (inactive) | GI50 (U-251): 18.8 µM (inactive) | GI50 (UACC-257): 20.7 µM (inactive) | GI50 (UO-31): 17.7 µM (inactive)
